In patent publication US6436630B1, “Method for testing the toxicity of chemical substances using gastropods” (priority 1998, dated 2002):
Where two headings read alike, the source gives them in different places.

Columns and labels:
[1] = tested on: foot mucosa of slugs of species Limax; assay type: in vivo; settings: for % MP, mucus production as % of the body weight at the start of the day before the treatment: 1% w/v (HPβCD 5% w/v) in PBS, 15 min; for ALP released into PBS / LDH released into PBS / Protein released into PBS: 1% w/v (HPβCD 5% w/v), total mean of 7 samples/day per slug
Experimental: Slugs of the species Limax are terrestial slugs have lungs and also a small internal shell. As test substances hydroxypropyl-β-cyclodextrin (HPβCD), sodium tauro-24,25-dihdrofiisidate (STDHF) and sodium deoxycholate were selected. Benzalkonium chloride (1% w/v), HPβCD (5% w/v), STDHF (1% w/v) and SDC (1% w/v) were prepared in phosphate buffered saline (PBS, pH 7.4).
The enzymes lactate dehydrogenase (LDH) and alkaline phosphatase (ALP) and total protein released into the PBS were determined. The change in body weight and mucus production caused by the treatment were examined.

[2] = tested on: foot mucosa of slugs (species Arion); test: Slug mucosal toxicity test, Example 1 (15 min daily treatment, five days); assay type: in vivo; settings: for % WL, reduction in weight (weight loss) caused by the 15 minute treatment as % of initial body weight of the day / % MP, mucus production as % of the body weight at the start of the day before the treatment: 1% w/v in PBS; for % MP, mucus production as % of the body weight at the start of the day before the treatment / ALP released into PBS / LDH released into PBS / Protein released into PBS: 15 min; for ALP released into PBS / LDH released into PBS / Protein released into PBS: total mean of 7 samples/day per slug
Description: Initially, the slugs are kept on a culture under controlled conditions of temperature and humidity until they have reached a stable body weight. The purpose of achieving a stable body weight is to improve the reproducibility of the results, particularly as the release of substances from the slugs may conveniently be measured in terms of the body weight thereof. The slugs are then isolated from the culture and placed in a vented plastic box lined with moist paper towel and placed at 95% relative humidity at 20° C. seven days before the start of an experiment. The slugs were not bred in any particular way, i.e. they were wild slugs. It is anticipated that even more accurate and reproducible results can be obtained by selective breeding of the slugs, although as shown by the test results this is not a necessary requirement of the present invention to obtain accurate and useful data.
The test procedure is simple and rapid. The chemical substance to be tested is applied directly to the mucosal membrane of a slug, e.g. to the foot, by placing the slug individually in a petri dish containing the test substance. Slugs treated with phosphate buffered saline are used as a negative control. As a positive control slugs treated with a known toxic substance, benzalkonium chloride, were used.
Because the mucosal epithelium of interest is located at the outside of the slug the effect of substances can be easily observed. […] This can also be simply measured by weighing the petri dish before and after the treatment of the slugs with the chemical substance (with the slugs removed in each case). Additionally an indirect response to epithelial damage caused by a chemical substance may be determined by the reduction of the body weight of the slugs due to the leakage of haemolymphatic fluids through the damaged foot surface.
After the treatment the slugs are transferred individually to a fresh petri dish containing phosphate buffered saline. After a suitable exposure time, e.g. 1 hour the phosphate buffered saline is collected and analysed for the presence of proteins and/or enzymes, e.g. lactate dehydrogenase and/or alkaline phosphatase, or other marker substances released from the foot or epithelium of the slug, for example membrane associated components such as phospholipids or cholesterol. This procedure can be repeated after periods of several hours in order to determine the reversibility of the cell damage caused by the test chemical substance. The concentration or amount of the chemical substance to be tested can be changed and the influence of the concentration can be easily examined. The exposure time can also be changed if required. The slugs can be treated during several successive days in order to investigate the subchronical effect of substances on the foot mucosa.
Seven days before the start of the experiment the slugs were isolated in a plastic box lined with moist paper towel and placed at 95% relative humidity at 20° C. As test substances didecanyol-L-α-phosphatidylcholine (DDPC) and sodium deoxycholate (SDC) were selected. Benzalkonium chloride (1% w/v), SDC (1% w/v) and DDPC (1%, w/v) were prepared in phosphate buffered saline (PBS, pH 7.4). […] During the test the slugs are preferably kept in a generally calm and normal state and are not subjected to mechanical vibrations or mechanical or electrical disturbances which may affect mucus production.
The enzymes (lactate dehydrogenase (LDH) and alkaline phosphatase (ALP)) and total protein released into the PBS were determined. The slugs were weighed before and after the incubation period to determine the body weight changes. The mucus production was measured by weighing the petri dishes before and after the treatment with a test substance. The results are shown in Table 1 and shown graphically in FIGS. 1 to 5.

[3] = tested on: foot mucosa of slugs of species Arion; assay type: in vivo
[4] = tested on: foot mucosa of slugs of species Arion; test: Slug mucosal toxicity test, Example 2 (15 min daily treatment, four days); settings: for % WL, weight loss as reduction in body weight caused by the 15 minutes of treatment / % MP, mucus production as % of the body weight at the start of the day before the treatment: 1% w/v in PBS; for % MP, mucus production as % of the body weight at the start of the day before the treatment / ALP released into PBS / LDH released into PBS / Protein released into PBS: 15 min; for ALP released into PBS / LDH released into PBS / Protein released into PBS: 1% w/v, total mean of 3 samples/day per slug
Experimental: As test substance a β-blocking agent propranolo HCl (1% w/v) was used. Benzalkonium chloride (1% w/v) and Propranolol (1% w/v) were prepared in PBS (pH 7.4). The slugs were daily incubated during 15 min with the test solution during four days. After the incubation period the slugs were placed on 500 μL PBS in a petri dish. The PBS was sampled every hour and refreshed with 500 μL PBS for 3 hours after the treatment.
The enzymes (LDH, ALP) and the total protein released into the PBS were determined. The change in body weight and the mucus production caused by the treatment were examined.

With sodium deoxycholate [SDC] the “ranking order of increasing toxicity” value ([1]; Limax) was “PBS, 5% HPβCD<1% STDHF<1% SDC and 1% BAC”, the “membrane damage (in words)” value ([1]; Limax, 1% w/v) was “severe membrane damage” and the “reduction in body weight to % of the initial weight” value (“reduction in body weight to %” below) ([1]; Limax, 1% w/v, five days) was “about 50%”. The “% MP, mucus production as % of the body weight at the start of the day before the treatment” value (from here on “% MP, mucus production as %”) ([1]; day 1, Limax) was 11.16%, the “ALP released into PBS” value ([1]; day 1, Limax) was 11.62 U/L and the “LDH released into PBS” value ([1]; day 1, Limax) was 9.01 U/L. The “Protein released into PBS” value ([1]; day 1, Limax) was 10.1 μg/30μL, the “% MP, mucus production as %” value ([1]; day 2, Limax) was 10.27% and the “ALP released into PBS” value ([1]; day 2, Limax) was 3.34 U/L. The “LDH released into PBS” value ([1]; day 2, Limax) was 13.6 U/L, the “Protein released into PBS” value ([1]; day 2, Limax) was 15.78 μg/30μL and the “% MP, mucus production as %” value ([1]; day 3, Limax) was 13.01%. The “ALP released into PBS” value ([1]; day 3, Limax) was 2.62 U/L, the “LDH released into PBS” value ([1]; day 3, Limax) was 26.15 U/L and the “Protein released into PBS” value ([1]; day 3, Limax) was 18.04 μg/30μL. For the same substance, the “% MP, mucus production as %” value ([1]; day 4, Limax) was 19.38%, the “ALP released into PBS” value ([1]; day 4, Limax) was 6.24 U/L and the “LDH released into PBS” value ([1]; day 4, Limax) was 85.8 U/L. The “Protein released into PBS” value ([1]; day 4, Limax) was 35.04 μg/30μL, the “% MP, mucus production as %” value ([1]; day 5, Limax) was 8.11% and the “ALP released into PBS” value ([1]; day 5, Limax) was 28.79 U/L. The “LDH released into PBS” value ([1]; day 5, Limax) was 145.71 U/L, the “Protein released into PBS” value ([1]; day 5, Limax) was 88.14 μg/30μL and the “membrane damage (in words)” value ([2]; 1% w/v, 15 min daily, five days) was “severe membrane damage”. For the same substance, the “% WL, reduction in weight (weight loss) caused by the 15 minute treatment as % of initial body weight of the day” value ([2]; day 1) was 12.73%, the “% MP, mucus production as %” value ([2]; day 1) was 7.6% and the “ALP released into PBS” value ([2]; day 1, 1% w/v) was 13.49 U/L. The “LDH released into PBS” value ([2]; day 1, 1% w/v) was 14.07 U/L, the “Protein released into PBS” value ([2]; day 1, 1% w/v) was 19.92 μg/30 μL and the “% WL, reduction in weight (weight loss) caused by the 15 minute treatment as % of initial body weight of the day” value ([2]; day 2) was 12.60%. For the same substance, the “% MP, mucus production as %” value ([2]; day 2) was 10.7%, the “ALP released into PBS” value ([2]; day 2, 1% w/v) was 43.02 U/L and the “LDH released into PBS” value ([2]; day 2, 1% w/v) was 93.01 U/L. For the same substance, the “Protein released into PBS” value ([2]; day 2, 1% w/v) was 22.84 μg/30 μL, the “% WL, reduction in weight (weight loss) caused by the 15 minute treatment as % of initial body weight of the day” value ([2]; day 3) was 8.06% and the “% MP, mucus production as %” value ([2]; day 3) was 5.5%. For the same substance, the “ALP released into PBS” value ([2]; day 3, 1% w/v) was 103.56 U/L, the “LDH released into PBS” value ([2]; day 3, 1% w/v) was 135.93 U/L and the “Protein released into PBS” value ([2]; day 3, 1% w/v) was 38.95 μg/30 μL. For the same substance, the “% WL, reduction in weight (weight loss) caused by the 15 minute treatment as % of initial body weight of the day” value ([2]; day 4) was 11.28%, the “% MP, mucus production as %” value ([2]; day 4) was 7.6% and the “ALP released into PBS” value ([2]; day 4, 1% w/v) was 42.22 U/L. For the same substance, the “LDH released into PBS” value ([2]; day 4, 1% w/v) was 146.89 U/L, the “Protein released into PBS” value ([2]; day 4, 1% w/v) was 54.76 μg/30 μL and the “% WL, reduction in weight (weight loss) caused by the 15 minute treatment as % of initial body weight of the day” value ([2]; day 5) was 8.03%. For the same substance, the “% MP, mucus production as %” value ([2]; day 5) was 2.6%, the “ALP released into PBS” value ([2]; day 5, 1% w/v) was 22.98 U/L and the “LDH released into PBS” value ([2]; day 5, 1% w/v) was 136.19 U/L. The “Protein released into PBS” value ([2]; day 5, 1% w/v) was 55.59 μg/30 μL, the “ranking order of increasing toxicity” value ([3]; Arion) was “PBS, 5% HPβCD<1% STDHF<1% SDC and 1% BAC” and the “membrane damage (in words)” value ([3]; Arion, 1% w/v (SDC data in Table 1, Example 1)) was “severe membrane damage”. For the same substance, the “reduction in body weight to %” value ([3]; Arion, 1% w/v, five days (SDC data from Example 1)) was “about 50%”.
With Benzalkonium chloride the “% WL, weight loss as reduction in body weight caused by the 15 minutes of treatment” value (“% WL, weight loss as reduction” for short) ([4]; day 1) was 7.17%, the “% MP, mucus production as %” value ([4]; day 1) was 3.28% and the “ALP released into PBS” value ([4]; day 1) was 0.56 U/L. The “LDH released into PBS” value ([4]; day 1) was 1.92 U/L, the “Protein released into PBS” value ([4]; day 1) was 8.36 μg/30 μL and the “% WL, weight loss as reduction” value ([4]; day 2) was 4.32%. The “% MP, mucus production as %” value ([4]; day 2) was 2.75%, the “ALP released into PBS” value ([4]; day 2) was 3.42 U/L and the “LDH released into PBS” value ([4]; day 2) was 6.27 U/L. The “Protein released into PBS” value ([4]; day 2) was 4.08 μg/30 μL, the “% WL, weight loss as reduction” value ([4]; day 3) was 2.87% and the “% MP, mucus production as %” value ([4]; day 3) was 2.35%. The “ALP released into PBS” value ([4]; day 3) was 5.64 U/L, the “LDH released into PBS” value ([4]; day 3) was 8.11 U/L and the “Protein released into PBS” value ([4]; day 3) was 11.69 μg/30 μL. For the same substance, the “% WL, weight loss as reduction” value ([4]; day 4) was 3.61%, the “% MP, mucus production as %” value ([4]; day 4) was 3.09% and the “ALP released into PBS” value ([4]; day 4) was 15.59 U/L. The “LDH released into PBS” value ([4]; day 4) was 48.65 U/L, the “Protein released into PBS” value ([4]; day 4) was 11.79 μg/30 μL and the “membrane damage (in words)” value ([1]; in vivo) was “severe membrane damage”. The “ranking order of increasing toxicity” value ([1]; in vivo) was “PBS, 5% HPβCD<1% STDHF<1% SDC and 1% BAC”, the “reduction in body weight to %” value ([1]; in vivo) was “about 50%” and the “membrane damage (in words)” value ([2]; in vivo) was “severe membrane damage”. For the same substance, the “membrane damage (in words)” value ([3]; in vivo) was “severe membrane damage”, the “ranking order of increasing toxicity” value ([3]; in vivo) was “PBS, 5% HPβCD<1% STDHF<1% SDC and 1% BAC” and the “reduction in body weight to %” value ([3]; in vivo) was “about 50%”.
